Paper PMC10616469, “Pharmacokinetics and tissue distribution of four major bioactive components of Cynanchum auriculatum extract: a UPLC–MS/MS study in normal and functional dyspepsia rats” (Frontiers in Pharmacology, 2023)
Where two headings read alike, the source gives them in different places.

Legend:
[1] = PK study: plasma pharmacokinetics after oral administration of CA extract in normal and FD rats (UPLC-MS/MS); format: in vivo; details: Sprague-Dawley, rat, oral CA extract (0.10 g/mL solution, 10 mL/kg); for AUC(0-inf) / AUC(0-t) / CL/F / Cmax / half-life: n = 6; for Tmax: n = 6, read-out: Tmax; for Vd/F: n = 6, read-out: Vz/F
Protocol: For PK experiments, an appropriate amount of the CA extract was weighed to prepare a 0.10 g/mL solution using physiological saline. Briefly, 12 SD rats were randomly assigned to normal and FD groups and were orally administered the prepared CA sample (10 mL/kg body weight). For assessment, 0.3 mL of blood was collected into heparinized tubes via the caudal vein before dosing and at 2, 5, 10, 15, 20, 30, and 45 min, and 1, 2, 4, 8, 12, 24, and 48 h after administration. Blood samples were then immediately centrifuged at 4,500 rpm for 15 min, and the obtained plasma samples were stored at −20°C until determination.
The PK parameters were analyzed using the non–compartment analysis using the WinNonLin 8.2 software (Phoenix, United States). All the data were expressed as mean ± standard deviation (SD). The normal and FD groups were compared using independent samples t–test in SPSS 22.0. Results with p values < 0.05 were considered statistically significant.

[2] = Stability of the four compounds in plasma samples (QC samples); details: n = 5
Protocol: In a 1.5 mL EP tube, 100 μL of plasma sample was mixed with 10 µL 1% formic acid–water, 10 μL IS (0.2011 μg/mL), and 400 μL acetonitrile. The mixture was then vortexed for 5 min, followed by sonication for 10 min at 40 kHz and centrifugation at 14,000 rpm for 10 min. The supernatant obtained was transferred to another tube and evaporated to dryness under a nitrogen vacuum at 37°C. The residue obtained was reconstituted with 150 μL of the initial mobile phase, and the centrifugation process was repeated. The supernatant thus obtained was then used for further analysis.
Similarly, QC samples of three concentrations (low, medium, and high) were prepared.
The specificity of the method was evaluated by comparing the retention times of analytes and IS in the blank matrix, blank matrix spiked with the four analytes and IS, and the samples after oral administration of CA extract. Calibration curves were constructed by comparing the ratio of peak areas of the four analytes to that of IS versus the concentration of the four analytes. Calibration curves were fitted via linear weighted (1/X ^ 2 ) least–squares regression. The intra–and inter–day precision and accuracy were estimated by analyzing QC samples at different concentrations on the same day and three consecutive validation days, respectively. The extraction recovery was evaluated by determining the peak area of analytes in QC samples compared with that in extracted matrix samples. The relative standard deviation of the extraction recovery of analytes at each level was retained at ≤20.0%. The following parameters of stability were assessed: short–term stability (24 h at room temperature), processed sample stability (24 h at 4°C), freeze–thaw stability (3 cycles), and auto–sampler stability (6 h at room temperature). QC samples of different concentrations were used for stability analysis.

[3] = Tissue distribution study after oral administration of CA extract in normal and FD rats
Protocol: UPLC–MS/MS analysis was conducted using the ACQUITY UPLC system (Waters Corp., Milford, MA, United States) equipped with a Xevo–TQ mass spectrometer (Waters Corp., Milford, MA, United States) with an electrospray ionization (ESI) interface and triple quadrupole mass analyzer.
The ACQUITY UPLC® BEH C18 column (2.1 mm × 50 mm, 1.7 μm, Waters, United States) was used for separation and was maintained at 40°C. The mobile phase consisted of 0.1% formic acid in water (A) and 0.1% formic acid–acetonitrile (B) for PK study and 0.2% formic acid in water (A) and 0.2% formic acid–acetonitrile (B) for tissue distribution study. The mobile phase was eluted as a gradient, as follows: 0–0.5 min, 10% B; 0.5–3.0 min, 15% B; 3.0–3.2 min, 25% B; 3.2–4.0 min, 30% B; 4.0–4.5 min, 32% B; 4.5–6.0 min, 90% B; and 6.0 min, 10% B. The flow rate was set at 0.35 mL/min and the injection volume was 2 μL for the PK study and 1 μL for the tissue distribution study.
The four active components of CA were quantified using multiple reaction monitoring under negative ion mode. The following m/z transitions were chosen for quantification: baishouwu benzophenone 301.00→283.00, deacylmetaplexigenin 379.15→361.20, qingyangshengenin 499.20→137.00, syringic acid 197.20→181.95, and puerarin (internal standard, IS) 415.10→267.05. The collision energy was 15, 15, 35, 15, and 35 V, respectively ([Sun et al., 2022]). ESI mode was operated under the following conditions: capillary voltage, 1 kV; desolvation gas (N2), 1000 L/h; collision gas (Ar2), 150 L/h; desolvation temperature, 400°C; and source temperature, 120°C.
Additionally, stomach and small intestinal tissues were diluted three times to obtain a tissue homogenate. Then, 300 μL of this tissue homogenate was mixed with 30 μL 1% formic acid-water, 20 μL IS, and 1.2 mL acetonitrile. The mixture was then vortexed for 5 min, sonicated for 10 min, and then stored at −20°C for 30 min. Subsequently, the mixture was centrifuged at 14,000 rpm for 10 min. The supernatant obtained was then transferred to another tube and evaporated to dryness at 37°C under nitrogen. The dried residue was reconstituted with 200 μL of the 50% methanol–water, and the centrifugation process was repeated. The obtained supernatant was then used for further analysis.
SD rats were randomly divided into normal and FD groups (n = 30 each) and orally administered 10 mL/kg of CA extract solution. The rats were sacrificed at 10, 30 min, 1, 2, and 4 h after administration (6 rats per time point). Subsequently, their heart, liver, spleen, lung, kidney, brain, small intestine, and stomach were removed. The tissue samples were then washed in saline solution and wiped with filter paper. Subsequently, all tissues were stored at −80°C until analysis.

[4] = high QC (nominal 1666.00 / 3172.53 / 569.17 / 206.21 ng·mL^-1)
[5] = low QC (nominal 52.06 / 49.57 / 8.89 / 1.61 ng·mL^-1)
[6] = medium QC (nominal 208.25 / 396.57 / 71.13 / 25.78 ng·mL^-1)

COc1cc(C(=O)O)cc(OC)c1O [Syringic acid]
AUC(0-inf) ([1]; FD group rats): 1170 ± 357 ng·h/mL | AUC(0-t) ([1]; FD group rats): 498 ± 109 ng·h/mL | CL/F ([1]; FD group rats): 1.83 mL/min/kg | Cmax ([1]; FD group rats): 67.4 ± 3 ng/mL | half-life ([1]; FD group rats): 37.7 ± 12.6 h | Tmax ([1]; FD group rats): 0.25 ± 0.04 h | Vd/F ([1]; FD group rats): 5.49 ± 0.69 L/kg | AUC(0-inf) ([1]; Normal group rats): 1150 ± 153 ng·h/mL | AUC(0-t) ([1]; Normal group rats): 523 ± 54.3 ng·h/mL | CL/F ([1]; Normal group rats): 1.67 mL/min/kg | Cmax ([1]; Normal group rats): 72.2 ± 6.74 ng/mL | half-life ([1]; Normal group rats): 34.5 ± 6.73 h | Tmax ([1]; Normal group rats): 0.24 ± 0.03 h | Vd/F ([1]; Normal group rats): 5.07 ± 0.74 L/kg | Measured concentration, 4°C for 24 h [2, 4]: 185.91 ± 1.51 ng/mL | Measured concentration, Room temperature for 24 h [2, 4]: 196.89 ± 6.85 ng/mL | Measured concentration, Three freeze-thaw cycles [2, 4]: 198.43 ± 6.85 ng/mL | Measured concentration, 4°C for 24 h [2, 5]: 1.47 ± 0.10 ng/mL | Measured concentration, Three freeze-thaw cycles [2, 5]: 1.42 ± 0.18 ng/mL | Measured concentration, 4°C for 24 h [2, 6]: 22.75 ± 1.62 ng/mL | Measured concentration, Room temperature for 24 h [2, 6]: 23.14 ± 1.80 ng/mL | Measured concentration, Three freeze-thaw cycles [2, 6]: 23.32 ± 1.20 ng/mL | detection in the brain ([3]; rat brain): not detected | time after dosing at which eliminated in all tissues ([3]; rat tissues): 1 h | tissue with higher distribution ([3]; rats): stomach
